Laboratory results from patent publication US7595056B1, “Methods of rejuvenating Leydig cells and enhancing testosterone production in a male subject” (University of Tennessee Research Foundation, priority 2002, dated 2009).
Entries after “also recorded” stand apart in the source; their conditions may differ.

Key:
Leydig cells [1] = settings: Leydig cells isolated from 60 days old rats, in vitro; cited from earlier work
Leydig cells [2] = assay: LH-stimulated testicular steroidogenesis in vitro (testis of treated rats incubated 3 hours, testosterone by RIA); assay type: in vivo, Brown Norway rat
Description: Male Brown Norway rats aged 3, 6, 12 (n=8 per group; 3M, 6M, and 12M, respectively), and 18 months (M) (n=32; 18M) were purchased from Harlan (Madison, Wis., United States of America). The 18M rats were divided equally into four groups (n=8 per group). Under deep inhalation anesthesia (METOFANE™; Malincroft Veterinary, Inc., Mundelein, Ill., United States of America), the four groups of 18M rats were implanted subdermally with ALZET™ mini-osmotic pumps (model 2ML4; Alza Corporation, Palo Alto, Calif., United States of America), containing saline (control), LH (24 μg/day; National Hormone and Pituitary Program, Los Angeles, Calif., United States of America), thyroxine (T4; 5 μg/day; Sigma, St. Louis, Mo., United States of America), and LH and T4 (LH+T4; two pumps, 24 […] of T4), respectively, for 4 weeks (to 19 months [19M] of age). […]
One testis of each rat in the 3M, 6M, 12M, and 19M age groups was removed, cleaned of fat, and weighed on a Mettler H54 balance to obtain the fresh testis weight. Using the flotation technique (Mendis-Handagama et al., (1988) Am. J. Anat. 181:12-22; Mori & Christensen, (1980) J. Cell. Biol. 84:340-354; and Mendis-Handagama & Ewing, (1990) J. Microsc. (Oxf) 159:73-82), the specific gravity of the fresh testis was determined as described previously (Mori & Christensen, (1980) J. Cell. Biol. 84:340-354 and Mendis-Handagama & Ewing, (1990) J. Microsc. (Oxford) 159:73-82), and the fresh testis volume was calculated by dividing the fresh testis weight by the specific gravity (in metric units, specific gravity equals density). […] Testosterone levels in the incubation medium were measured by RIA using commercially available kits (COAT-A-COUNT™), and the details of the assay are given above (see Laboratory Example 4). Testosterone-secretory capacity per Leydig cell was calculated by dividing the testosterone-secretory capacity per testis by the number of Leydig cells per testis. […]

[3] = RIA for serum LH, T4, triiodothyronine and testosterone of treated rats; assay type: in vivo, Brown Norway rat
Description: Male Brown Norway rats aged 3, 6, 12 (n=8 per group; 3M, 6M, and 12M, respectively), and 18 months (M) (n=32; 18M) were purchased from Harlan (Madison, Wis., United States of America). The 18M rats were divided equally into four groups (n=8 per group). Under deep inhalation anesthesia (METOFANE™; Malincroft Veterinary, Inc., Mundelein, Ill., United States of America), the four groups of 18M rats were implanted subdermally with ALZET™ mini-osmotic pumps (model 2ML4; Alza Corporation, Palo Alto, Calif., United States of America), containing saline (control), LH (24 μg/day; National Hormone and Pituitary Program, Los Angeles, Calif., United States of America), thyroxine (T4; 5 μg/day; Sigma, St. Louis, Mo., United States of America), and LH and T4 (LH+T4; two pumps, 24 […] of T4), respectively, for 4 weeks (to 19 months [19M] of age). These doses of LH (Mendis-Handagama et al., (1998) Tissue Cell 30:64-73) and thyroid hormone (Ariyaratne et al., (2000) Biol. Reprod. 63:1115-1123) were used based on previously published studies. Rats were maintained under conditions of controlled temperature (25° C.) and lighting (14 hour/10 hour light/dark cycle) and were housed individually (one rat per cage). The animals were fed with Agway PROLAB™ rat formula (Agway, Syracuse, N.Y., United States of America) and water ad libitum until they were sacrificed. The animal protocol employed (No. 488) meets the guidelines of the National Institutes of Health and was approved by the University of Tennessee Animal Care and Concerns Committee. […]
Serum LH hormone was quantified using a commercially available rat luteinizing hormone (rLH) kit (Amersham Pharmacia Biotech, Piscataway, N.J., United States of America). […]
The PC SAS software (SAS Institute Inc., Cary, N.C., United States of America) was used to analyze the data. Results are expressed as mean± standard error of the mean (SEM). […]

[4] = tested on: testis of Brown Norway rats; assay: Microscopy and stereology of the testis of aged Brown Norway rats treated 4 weeks with LH, T4 or LH+T4; assay type: in vivo, Brown Norway rat
Description: Male Brown Norway rats aged 3, 6, 12 (n=8 per group; 3M, 6M, and 12M, respectively), and 18 months (M) (n=32; 18M) were purchased from Harlan (Madison, Wis., United States of America). The 18M rats were divided equally into four groups (n=8 per group). Under deep inhalation anesthesia (METOFANE™; Malincroft Veterinary, Inc., Mundelein, Ill., United States of America), the four groups of 18M rats were implanted subdermally with ALZET™ mini-osmotic pumps (model 2ML4; Alza Corporation, Palo Alto, Calif., United States of America), containing saline (control), LH (24 μg/day; National Hormone and Pituitary Program, Los Angeles, Calif., United States of America), thyroxine (T4; 5 μg/day; Sigma, St. Louis, Mo., United States of America), and LH and T4 (LH+T4; two pumps, 24 […] of T4), respectively, for 4 weeks (to 19 months [19M] of age). These doses of LH (Mendis-Handagama et al., (1998) Tissue Cell 30:64-73) and thyroid hormone (Ariyaratne et al., (2000) Biol. Reprod. 63:1115-1123) were used based on previously published studies. Rats were maintained under conditions of controlled temperature (25° C.) and lighting (14 hour/10 hour light/dark cycle) and were housed individually (one rat per cage). The animals were fed with Agway PROLAB™ rat formula (Agway, Syracuse, N.Y., United States of America) and water ad libitum until they were sacrificed. The animal protocol employed (No. 488) meets the guidelines of the National Institutes of Health and was approved by the University of Tennessee Animal Care and Concerns Committee.
Pumps were filled with either saline, LH, or T4, and were primed in saline for 3 hours before implantation so that they would deliver their contents immediately on subdermal implantation into the interscapular region. The LH+T4 rats received two pumps each, one containing LH and one containing T4; the other rats received one pump containing either saline, LH, or T4. After 4 weeks of treatment, rats were sacrificed. In addition, implanted pumps were removed and examined to verify that they had delivered their contents as expected.
One testis of each rat in the 3M, 6M, 12M, and 19M age groups was removed, cleaned of fat, and weighed on a Mettler H54 balance to obtain the fresh testis weight. Using the flotation technique (Mendis-Handagama et al., (1988) Am. J. Anat. 181:12-22; Mori & Christensen, (1980) J. Cell. Biol. 84:340-354; and Mendis-Handagama & Ewing, (1990) J. Microsc. (Oxf) 159:73-82), the specific gravity of the fresh testis was determined as described previously (Mori & Christensen, (1980) J. Cell. Biol. 84:340-354 and Mendis-Handagama & Ewing, (1990) J. Microsc. (Oxford) 159:73-82), and the fresh testis volume was calculated by dividing the fresh testis weight by the specific gravity (in metric units, specific gravity equals density). This measurement is required to express Leydig cell numbers per testis, because numerical density is obtained as a number per unit volume of the testis. The testis was then decapsulated, and the entire testis was incubated for 3 hours in the same medium as described previously (Ariyaratne et al., (2000) Biol. Reprod. 63:1115-1123; Mendis-Handagama et al., (1998) Biol. Reprod. 59:351-357; Mendis-Handagama et al., (1990) J. Androl. 11:548-554; Ariyaratne et al., (2000) Biol. Reprod. 63:493-502; and Ariyaratne & Mendis-Handagama, (2000) Biol. Reprod. 62:158-168) to determine the LH-stimulated testosterone-secretory capacity per testis in vitro. Testosterone levels in the incubation medium were measured by RIA using commercially available kits (COAT-A-COUNT™), and the details of the assay are given above (see Laboratory Example 4). Testosterone-secretory capacity per Leydig cell was calculated by dividing the testosterone-secretory capacity per testis by the number of Leydig cells per testis. […]

rat growth hormone (rat) = rat growth hormone (rat) (UniProt P01244); assay: RIA, rat LH kit (Amersham Pharmacia Biotech); cross-reactivity against rat LH as reference
UniProt P01244, sequence (P01244 27-216 limits assumed): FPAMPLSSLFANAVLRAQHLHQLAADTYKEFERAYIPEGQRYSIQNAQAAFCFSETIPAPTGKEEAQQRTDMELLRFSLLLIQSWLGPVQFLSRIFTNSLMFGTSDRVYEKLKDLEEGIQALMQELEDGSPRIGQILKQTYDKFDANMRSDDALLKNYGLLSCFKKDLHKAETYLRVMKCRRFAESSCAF

rat TSH (rat) = rat TSH (rat) (UniProt P11962); assay: as above
rat prolactin (rat) = rat prolactin (rat) (UniProt P01237); assay: as above
UniProt P01237, sequence (P01237 30-226 limits assumed): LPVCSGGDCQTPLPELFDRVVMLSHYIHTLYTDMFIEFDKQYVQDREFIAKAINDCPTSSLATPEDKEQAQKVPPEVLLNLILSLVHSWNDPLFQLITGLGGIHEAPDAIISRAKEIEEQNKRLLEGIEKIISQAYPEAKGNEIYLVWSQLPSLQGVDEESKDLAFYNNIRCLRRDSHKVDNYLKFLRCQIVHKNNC

[5] = molecular target: rat adenocorticotropic hormone (ACTH) (rat) (UniProt P01194); assay: as above
UniProt P01194, sequence (P01194 124-162 limits assumed): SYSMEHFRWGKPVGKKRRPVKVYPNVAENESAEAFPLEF

[6] = molecular target: rat follicle stimulating hormone (FSH) (rat) (UniProt P11962); assay: as above
[7] = 19M Brown Norway rats after 4 weeks subdermal osmotic pump (LH 24 μg/day, T4 5 μg/day), mean, n=8

Molecule: N[C@@H](Cc1cc(I)c(Oc2ccc(O)c(I)c2)c(I)c1)C(=O)O [T3, L-3,5,3′-triiodothyronine]
- Effect on testosterone secretion of Leydig cells (Leydig cells [1]): increased testosterone secretion of Leydig cells in a dose dependent fashion up to 50 ng
- Minimum effective dose for testosterone production (Leydig cells [1]): 25 ng

Molecule: N[C@@H](Cc1cc(I)c(Oc2cc(I)c(O)c(I)c2)c(I)c1)C(=O)O [T4, L-3,5,3′,5′-tetraiodothyronine]
- LH-stimulated testosterone-secretory capacity per testis and per Leydig cell in vitro, comparison between groups in words (Leydig cells [2]; 19M treated rats versus younger rats): comparable to those in 12M rats
- Mean Testosterone-Secretory Capacity Per testis (Leydig cells [2]; LH-stimulated, in vitro, 3 hours incubation, testis of 19M rats treated 4 weeks (LH 24 μg/day, T4 5 μg/day), mean, n=8): 14,748 ng
- Mean Testosterone-Secretory Capacity Per Leydig cell (Leydig cells [2]; LH-stimulated, in vitro, capacity per testis divided by number of Leydig cells per testis, 19M rats treated 4 weeks): 0.67 pg
- Mean Serum Testosterone [3, 7]: 73 ng/dL
- Serum LH levels, comparison between groups in words ([3]; 19M treated rats versus 3M through 12M rats): reduced significantly
- Serum testosterone levels, comparison between groups in words ([3]; 19M treated rats versus 19M controls and younger rats, P<0.05): significantly greater than 19M controls; also recorded: significantly lower than those in 3M through 12M rats; also recorded: not sufficient to upgrade the serum testosterone levels in 19M rats to those of 3M and 6M rats
- Average volume of a Leydig cell [4, 7]: 1998 μm^3
- Leydig cell number per Testis [4, 7]: 21.80 10^6
- Volume density of Leydig cells [4, 7]: 2.38%
- Absolute volume of Leydig cells per testis, comparison between groups in words ([4]; 19M treated rats versus 19M control and younger rats, P<0.05): higher values compared to 19M control rats; also recorded: not significantly different from those of 12M rats
- Average volume of a Leydig cell, comparison between groups in words ([4]; 19M treated rats versus younger rats, P<0.05): significantly lower than those in 3M and 6M rats; also recorded: partially effective
- Size of Leydig cell profiles in tissue sections ([4]; light microscopy, 19M treated rats versus 19M control rats): much larger than those in 19M control rats
- Mean Absolute Volume of Leydig cells ([4]; per testis, 19M Brown Norway rats after 4 weeks subdermal osmotic pump (LH 24 μg/day, T4 5 μg/day), mean, n=8): 43.57 mm^3

Molecule: antibody for LH of the commercially available rat luteinizing hormone (rLH) RIA kit (Amersham Pharmacia Biotech)
- cross-reactivity (rat growth hormone (rat)): 0.1%
- cross-reactivity (rat TSH (rat)): 0.66%
- cross-reactivity (rat prolactin (rat)): < 0.8%
- cross-reactivity [5]: < 0.00092%
- cross-reactivity [6]: < 0.016%
